Source: patent EP3272739A1 (NodThera Limited, priority 2016, dated 2018)

test system: IL1-β release upon NLRP3 activation in peripheral blood mononuclear cells (PBMC); assay: PBMC IC50 determination assay (IL1-β release, ELISA); assay type: cell-based; details: Homo sapiens, PBMC, read-out: PBMCs, IC50, µM
Description: PBMC IC50 determination assay
The compounds of the present invention were tested for their inhibitory activity against IL1-β release upon NLRP3 activation in peripheral blood mononuclear cells (PBMC).
PBMC were isolated from buffy coats by density gradient centrifugation on Histopaque-1077 (Sigma, cat no. 10771). Isolated cells were seeded into the wells of a 96-well plate and incubated for 3 h with lipopolysaccharide (LPS). Following medium exchange, the compounds of the present invention were added (a single compound per well) and the cells were incubated for 30 min. Next, the cells were stimulated with nigericin (10 µM) for 1 h and the cell culture media from the wells were collected for further analysis.
The release of IL1-β into the media was determined by a quantitative detection of IL1-β in the media using an IL-1β enzyme-linked immunosorbent assay (ELISA) Ready-SET-Go!, eBioscience cat. No. 88-7261-88. Briefly, in a first step, high affinity binding plates (Coming, Costar 9018 or NUNC Maxisorp Cat No. 44-2404) were coated overnight at 4°C with specific capture antibody included in the kit (anti-human IL-1β ref. 14-7018-68). Subsequently, plates were blocked with blocking buffer for 1 h at room temperature (rt) and after washing with a buffer (PBS with 0,05% Tween-20) incubated with protein standard and culture media. After 2 h of incubation at rt, plates were washed and incubated with biotinylated detection antibody included in the kit (anti-human IL-1β Biotin ref. 33-7110-68) for 1 h at rt. Plates were washed and incubated with HRP-streptavidin for 30 min at rt and washed again. The signal was developed after addition of 3,39,5,59-tetramethylbenzidine-peroxidase (TMB) until color appeared and the reaction was stopped by 2 N H2SO4. A microplate spectrophotometer (BioTek) was used to detect signals with […]. The detection range of IL1-β ELISA was […].

O=C(Nc1c2c(cc3c1CCC3)CCC2)NS(=O)(=O)n1ccc2ccccc21 [Example 1A] and O=C(Nc1c2c(cc3c1CCC3)CCC2)NS(=O)(=O)n1ncc2ccccc21 [Example 1E] are within 1.5-fold of each other in IC50: 1.05 µM for the first, 1 µM for the second.

Compared with CC(=O)c1ccn(S(=O)(=O)NC(=O)Nc2c3c(cc4c2CCC4)CCC3)c1 [Example 1B], COC(=O)c1ccn(S(=O)(=O)NC(=O)Nc2c3c(cc4c2CCC4)CCC3)c1 [Example 1C] is 3.2-fold higher in IC50: 1.27 µM for the first, 4.07 µM for the second.

Going from O=C(Nc1c2c(cc3c1CCC3)CCC2)NS(=O)(=O)n1ccc2ncccc21 [Example 1D] to O=C(Nc1c2c(cc3c1CCC3)CCC2)NS(=O)(=O)n1ccc2ccncc21 [Example 1H], the IC50 falls from 10.5 µM to 4.93 µM (2.1-fold). The second is the more potent here.

Compared with O=C(Nc1c2c(cc3c1CCC3)CCC2)NS(=O)(=O)n1ccc(C2CC2)c1 [Example 1F], O=C(Nc1c2c(cc3c1CCC3)CCC2)NS(=O)(=O)n1ccc([N+](=O)[O-])c1 [Example 1J] is 67-fold higher in IC50: 0.4 µM for the first, 26.8 µM for the second. The first is the more potent here.

Compared with CCC(=O)c1ccn(S(=O)(=O)NC(=O)Nc2c3c(cc4c2CCC4)CCC3)c1 [Example 1G], O=C(Nc1c2c(cc3c1CCC3)CCC2)NS(=O)(=O)n1ccc(C(=O)C(F)(F)F)c1 [Example 1L] is 68-fold lower in IC50: 5 µM for the first, 0.074 µM for the second. The second is the more potent here.

Going from CC(=O)c1ccn(S(=O)(=O)NC(=O)Nc2c3c(c(Cl)c4c2CCC4)CCC3)c1 [Example 1I] to O=C(Nc1cc2c(c3c1CCC3)CCC2)NS(=O)(=O)n1ccc(C(=O)C(F)(F)F)c1 [Example 1Q], the IC50 falls from 0.91 µM to 0.33 µM (2.8-fold). The second is the more potent here.

Compared with O=C(Nc1c2c(cc3c1CCC3)CCC2)NS(=O)(=O)n1cccc1 [Example 1K], CC(C)(O)c1ccn(S(=O)(=O)NC(=O)Nc2c3c(cc4c2CCC4)CCC3)c1 [Example 3A] is 2.1-fold lower in IC50: 1.4 µM for the first, 0.66 µM for the second. The second is the more potent here.

First: O=C(Nc1c2c(cc3c1CCC3)CCCC2)NS(=O)(=O)n1ncc2ccccc21 [Example 1M]
Second: O=C(Nc1cc2c(c3c1CCCC3)CCC2)NS(=O)(=O)n1ncc2ccccc21 [Example 1N, 3-{1H,2H,3H,6H,7H,8H,9H -cyclopenta[a]naphthalen-5-yl}-1-(H-indazole-1-sulfonyl)-1-sodiourea]
The IC50 of the first is 2.3-fold higher: 4.62 µM for the first, 2.03 µM for the second.

O=C(Nc1c2c(cc3c1CCC3)CCC2)NS(=O)(=O)n1cc2c(c1)C(=O)CC2 [Example 1O] and CC(=O)c1cn(S(=O)(=O)NC(=O)Nc2c3c(cc4c2CCC4)CCC3)cc1-c1ccccc1 [Example 1T, 3=[(3-acetyl-4-phenyl-1H-pyrrol-1-yl)sulfonyl]-1-(1,2,3,5,6,7-hexahydro-s-indacen-4-yl)-3-sodiourea propan-2-ol solvate] are within 1.5-fold of each other in IC50: 4.13 µM for the first, 4.76 µM for the second.

In the case of O=C(Nc1c2c(cc3c1CCC3)CCC2)NS(=O)(=O)n1ccc(C(=O)c2ccccc2)c1 [Example 1P], the IC50 is reported as 2.91 µM.

same assay, conditions: Homo sapiens; PBMC primed 3 h with LPS, compound 30 min, nigericin (10 µM) 1 h; IL1-β in media by ELISA; values with * are mean values based on 2-6 measurements, all others single measurements; read-out: PBMCs, IC50

Compared with O=C(Nc1c2c(cc3c1CCC3)CCC2)NS(=O)(=O)n1cc2c(c1)C(=O)CCC2 [Example 1R, ammonium [(1,2,3,5,6,7-hexahydro-s-indacen-4-yl)carbamoyl][(4-oxo-4,5,6,7-tetrahydro-2H-isoindol-2-yl)sulfonyl]azanide], C=C(C)c1ccn(S(=O)(=O)NC(=O)Nc2c3c(cc4c2CCC4)CCC3)c1 [Example 4A, 3-(1,2,3,5,6,7-hexahydro-s-indacen-4-yl)-1-{[3-(prop-1-en-2-yl)-1H-pyrrol-1-yl]sulfonyl}urea] is 1.6-fold lower in IC50: 1.27 µM for the first, 0.81 µM for the second. The second is the more potent here.

First: Cc1cccn1S(=O)(=O)NC(=O)Nc1c2c(cc3c1CCC3)CCC2 [Example 1S, ammonium [(1,2,3,5,6,7-hexahydro-s-indacen-4-yl)carbamoyl][(2-methyl-1H-pyrrol-1-yl)sulfonyl]azanide]
Second: CC(O)c1ccn(S(=O)(=O)NC(=O)Nc2c3c(cc4c2CCC4)CCC3)c1 (stereo not shown) [Example 2A, 3-(1,2,3,5,6,7-hexahydro-s-indacen-4-yl)-1-{[3-(1-hydroxyethyl)-1H-pyrrol-1-yl]sulfonyl}urea]
The IC50 of the first is 7.3-fold lower: 0.27 µM for the first, 1.97 µM for the second. The first is the more potent here.

Compared with O=C(Nc1cc2c(c3c1CCC3)CCC2=O)NS(=O)(=O)n1ccc(C(=O)C(F)(F)F)c1 [Example 1U, ammonium [(6-oxo-1,2,3,6,7,8-hexahydroas-indacen-4-yl)carbamoyl]({[3-(trifluoroacetyl)-1H-pyrrol-1-yl]sulfonyl})azanide], O=C(Nc1c2c(cc3c1CCC3)CCC2)NS(=O)(=O)n1ccc(C(O)C(F)(F)F)c1 (stereo not shown) [Example 2B, 3-(1,2,3,5,6,7-hexahydro-s-indacen-4-yl)-1-{[3-(2,2,2-trifluoro-1-hydroxyethyl)-1H-pyrrol-1-yl]sulfonyl}urea] is 1.9-fold lower in IC50: 1.82 µM for the first, 0.98 µM for the second.
